Source: US5843990A, “Pyran-chromenone compounds, their synthesis and anti-HIV activity” (The University of Tennessee Research Corporation, priority 1996, dated 1998)
pEC50, pIC50: −log10 of the molar value. Entries after “also recorded” stand apart in the source; their conditions may differ. Like-named read-outs stand apart in the source and are kept apart here.

What was measured:
HIV-1 = assay: NCI (Weislow) anti-HIV screen, XTT cell protection, HIV-1 infected CEM-SS; assay type: cell-based; details: for anti-HIV activity / relative potency in words: NCI anti-HIV screen; for Classification (Active / Moderately Active / Inactive): Weislow assay, criteria of NCI protocol; for Classification (Active / Moderately Active / Inactive) / TI (therapeutic index, IC50/EC50): CEM-SS, HIV-1; for pEC50: Human immunodeficiency virus 1, 6 days, HIV-1 infected CEM-SS cells, 8c, 8d tested as racemic drug, read-out: EC50 (effective inhibition for 50% of cell growth); for pEC50 / TI (therapeutic index, IC50/EC50): Table 3; for TI (therapeutic index, IC50/EC50): 8640 min
Procedure: The compounds of this invention were also all assayed for activity in inhibiting the growth of HIV, human immunodeficiency virus, the virus known to cause AIDS. The protocol^25 was that of the National Cancer Institute (NCI) of the National Institutes of Health. The primary screen makes use of the HIV-1 strain of the virus. By this protocol, the procedure is as follows:
(1) The sample is dissolved in dimethyl sulfoxide, then diluted 1:100 in cell culture medium before preparing serial half-log10 dilutions. T4 lymphocytes (CEM cell line) are added, and after a brief interval, HIV-1 is added, resulting in a 1:200 dilution of the compound. Uninfected cells with the compound serve as a toxicity control, and infected and uninfected cells without the compound serve as basic controls. […]
(§1) (3) The tetrazolium salt, XTT, is added to all wells, and cultures are incubated to allow formazan color development by viable cells.
(§2) (4) Individual wells are analyzed spectrophotometrically to quantitate fornazan production, and in addition are viewed microscopically for detection of viable cells and confirmation of protective activity.
(§3) (5) Drug-treated, virus-infected cells are compared with drug-treated, noninfected cells and with other appropriate controls (untreated infected and untreated noninfected cells, drug-containing wells without cells, etc.) on the same plate.
(6) Data are reviewed in comparison with other tests done at the same time, and a determination about activity is made.
(§4) The results are given for IC50 and EC50. IC50 is a measure of "concentration for inhibition of 50% of cell growth" and is measured from drug-treated, uninfected cells, thus giving a measure of drug toxicity toward T4 lymphocytes. The EC50 is "effective inhibition for 50% of cell growth" and is measured on drug-treated, HIV-infected cells. A ratio of these values, IC50 /EC50 gives the therapeutic index, a measure of the overall effectiveness of the drug in halting virus-infestedcell growth. Typically for anti-HIV drugs to be classed as "active" in the NCI protocol, the IC50 value should be at least micromolar (10^-6 M) and the EC50 value should be sub-micromolar (10^-7 M or lower); however, these values are only ideal, and may vary a log-order in magnitude or more. […] Large, positive TI values, measured in the 10^2 -10^3 range indicate a potent, relatively nontoxic drug and represent the near-ideal drug candidate.
(§5) ^a Testing was conducted according to NCI's protocol [Weislow, O. W.
(§6) et al. J. Natl. Cancer Inst. 1989, 81, 577-586]. The virus strain was
(§7) HIV1, and the cell line was CEMSS.

[1] = tested on: T4 lymphocytes (CEM cell line), CEMSS; assay: NCI protocol toxicity control: growth of drug-treated, uninfected CEM-SS cells; assay type: cell-based; details: Homo sapiens, Table 3, 8b-8e tested as racemic drug, read-out: IC50 (concentration for inhibition of 50% of cell growth)
Procedure: (§8) (1) The sample is dissolved in dimethyl sulfoxide, then diluted 1:100 in cell culture medium before preparing serial half-log10 dilutions. T4 lymphocytes (CEM cell line) are added, and after a brief interval, HIV-1 is added, resulting in a 1:200 dilution of the compound. Uninfected cells with the compound serve as a toxicity control, and infected and uninfected cells without the compound serve as basic controls.
(§9) (2) Cultures are incubated at 37° C. in a 5% carbon dioxide atmosphere for six days.
as §1, §2, §3, §4, §5, §6, §7

[2] = tested on: HIV-1 (6R), an AZT-resistant strain; assay: NCI protocol, HIV-1 (6R) AZT-resistant strain, MT4 cells; assay type: cell-based; details: for pEC50: Human immunodeficiency virus 1, MT4; for TI (IC50/EC50) / Classification: Table 4, HIV-1 (6R), MT4 cells; for Classification: NCI criteria
Procedure: as §8, §9, §1, §2, §3, §4
(§10) Among these are the following strains of the virus: (1) HIV-1 (6R), an AZT-resistant strain; (2) N119, a nevirapine-resistant strain bearing a mutation at AA codon 181; (2) DPS, a diphenyl sulfone-resistant strain bearing a different mutation at AA codon 181.
as §5, §6
(§11) HIV1, and the cell line was MT4.

[3] = tested on: N119, a nevirapine-resistant strain bearing a mutation at AA codon 181; assay: NCI protocol, N119 nevirapine-resistant strain, MT4 cells; assay type: cell-based, HIV-1; details: for pEC50: Human immunodeficiency virus 1, MT4; for Classification: NCI criteria
Procedure: as §8, §9, §1, §2, §3, §4, §10, §5, §6, §11

[4] = tested on: DPS, a diphenyl sulfone-resistant strain bearing a different mutation at AA codon 181; assay: NCI protocol, DPS diphenyl sulfone-resistant strain, MT4 cells; assay type: cell-based, HIV-1; details: for pEC50: Human immunodeficiency virus 1, MT4; for TI (IC50/EC50) / Classification: Table 4, DPS, MT4 cells; for Classification: NCI criteria
Procedure: as §8, §9, §1, §2, §3, §4, §10, §5, §6, §11

MT4 cells = assay: NCI protocol toxicity control: growth of drug-treated, uninfected MT4 cells; assay type: cell-based; details: Homo sapiens
Procedure: as §8, §9, §1, §2, §3, §4, §5, §6, §11

[5] = tested on: strains of HIV resistant to other drugs that inhibit HIV reverse transcriptase; assay: Activity against HIV strains resistant to other HIV reverse transcriptase inhibitors (summary in words); assay type: cell-based; details: HIV-1 (6R), N119, DPS
Text: as §10
From the data in the Table, both compounds (-)-7a and 8a were classified as "active" for inhibition of each resistant HIV strain. From the large TI values, their potencies against these resistant strains of the virus are novel and remarkable. Other compounds of the invention are expected also to have this property.
as §5, §6, §11

[6] = tested on: human immunodeficiency virus (HIV); details: four diastereomers of the calanolide series, literature, cited from earlier work
[7] = MT4, Table 4, line of strain DPS
[8] = MT4, Table 4, line of strain HIV-1 (6R)
[9] = MT4, Table 4, line of strain N119

CCCc1cc(=O)oc2c3c(cc(OC)c12)O[C@H](C)[C@@H](C)[C@@H]3O (relative stereo) [Compound 8b]
anti-HIV activity / relative potency in words (HIV-1): less potent activities | Classification (Active / Moderately Active / Inactive) (HIV-1): Inactive | pIC50 [1]: < 3.70

CCCc1cc(=O)oc2c3c(cc(OC(C)C)c12)O[C@@H](C)[C@H](C)[C@@H]3O [(-)-7a, (-)-(8S,9R,10S)-10-Hydroxy-5-isopropyloxy-8,9-dimethyl-4-propyl-9,10-di-hydro-8H-pyrano[2,3-f]-chromen-2-one]
pEC50 (HIV-1): 6.02 | anti-HIV activity / relative potency in words (HIV-1): highly potent; also recorded: remarkable | anti-HIV activity / relative potency in words (HIV-1; listed as (-)-7): consistently showed impressive results in the anti-HIV screen | TI (therapeutic index, IC50/EC50) (HIV-1): 84.2 | Classification (Active / Moderately Active / Inactive) (HIV-1): Active | pIC50 [1]: 5.09 | pEC50 [2]: 6.19 | TI (IC50/EC50) [2]: 16.9 | Classification [2]: Active | pEC50 [3]: 8.15 | TI (IC50/EC50) ([3]; Table 4, N119, MT4 cells): 1540 | Classification ([3]; Table 4, N119, MT4 cells): Active | pEC50 [4]: 7.00 | TI (IC50/EC50) [4]: 121 | Classification [4]: Active | pIC50 (MT4 cells; [7]): 4.92 | pIC50 (MT4 cells; [8]): 4.97 | pIC50 (MT4 cells; [9]): 4.95 | inhibitory activity against resistant HIV strains, in words [5]: potent inhibitory activities; also recorded: active; also recorded: potent activity

CCCc1cc(=O)oc2c3c(c4c(c12)OC(C)(C)C=C4)O[C@H](C)[C@@H](C)[C@@H]3O [(+)-calanolide A]
anti-HIV potency of known calanolides, in words [6]: the more potent of the four diastereomers | anti-HIV potency of known calanolides, in words ([6]; listed as (+)-Calanolide A): more potent diastereomers in this class

CCCc1cc(=O)oc2c3c(cc(OC(C)C)c12)O[C@H](C)[C@@H](C)[C@@H]3O [Compound 8a, (+)-(8R,9S,10S)-10-Hydroxy-5-isopropyloxy-8,9-dimethyl-4-propyl-9,10-dihydro-8H-pyrano[2,3-f]-chromen-2-one]
pEC50 (HIV-1): 6.79 | anti-HIV activity / relative potency in words (HIV-1): consistently showed impressive results in the anti-HIV screen; also recorded: remarkable | anti-HIV activity / relative potency in words (HIV-1; listed as (+)-8a): remarkable among the congeners of the invention | TI (therapeutic index, IC50/EC50) (HIV-1): 130 | Classification (Active / Moderately Active / Inactive) (HIV-1): Active | pIC50 [1]: 4.68 | pEC50 [2]: 6.44 | TI (IC50/EC50) [2]: 54.8 | Classification [2]: Active | pEC50 [3]: 8.20 | Classification ([3]; Table 4, N119, MT4 cells): Active | pEC50 [4]: 7.19 | TI (IC50/EC50) [4]: > 308 | Classification [4]: Active | pIC50 (MT4 cells; [7]): < 4.70 | pIC50 (MT4 cells; [8]): < 4.70 | pIC50 (MT4 cells; [9]): < 4.70 | inhibitory activity against resistant HIV strains, in words [5]: potent inhibitory activities; also recorded: active | inhibitory activity against resistant HIV strains, in words ([5]; listed as (+)-8a): potent activity

CCCc1cc(=O)oc2c3c(cc(OC(C)CC)c12)O[C@H](C)[C@@H](C)[C@@H]3O (relative stereo) [Compound 8c]
pEC50 (HIV-1): 5.44 | anti-HIV activity / relative potency in words (HIV-1): less potent activities | TI (therapeutic index, IC50/EC50) (HIV-1): 10.2 | Classification (Active / Moderately Active / Inactive) (HIV-1): Mod. Active; also recorded: moderately active | pIC50 [1]: 4.43

CCCc1cc(=O)oc2c3c(cc(OC(C)C)c12)O[C@H](C)[C@@H](C)[C@H]3O [Compound 7a, (+)-(8R,9S,10R)-10-Hydroxy-5-isopropyloxy-8,9-dimethyl-4-propyl-9,10-di-hydro-8H-pyrano[2,3-f]-chromen-2-one]
anti-HIV activity / relative potency in words (HIV-1): consistently showed impressive results in the anti-HIV screen | Classification (Active / Moderately Active / Inactive) (HIV-1): Inactive | pIC50 [1]: 5.08

CCCc1cc(=O)oc2c3c(c4c(c12)OC(C)(C)C=C4)OC(C)C(C)C3O (single isomer, unassigned; (-)) [(-)-calanolide B]
anti-HIV potency of known calanolides, in words [6]: the more potent of the four diastereomers; also recorded: more potent diastereomers in this class

C#CCOc1cc2c(c3oc(=O)cc(CCC)c13)[C@@H](O)[C@H](C)[C@@H](C)O2 (relative stereo) [Compound 8e]
anti-HIV activity / relative potency in words (HIV-1): less potent activities | Classification (Active / Moderately Active / Inactive) (HIV-1): Inactive | pIC50 [1]: 5.08

CCCc1cc(=O)oc2c3c(cc(OC(C)C)c12)O[C@@H](C)[C@H](C)[C@H]3O [(-)-8a, (-)-(8S, 9R, 10R)-10-Hydroxy-5-isopropyloxy-8,9-dimethyl-4-propyl-9,10-dihydro-8H-pyrano[2,3-f]-chromen-2-one]
anti-HIV activity / relative potency in words (HIV-1): consistently showed impressive results in the anti-HIV screen | Classification (Active / Moderately Active / Inactive) (HIV-1): Inactive | pIC50 [1]: 5.13
